Test results as given in US20100222390A1, “Methods and Compositions for the Intravenous Administration of Compounds Related to Proton Pump Inhibitors” (Alevium Pharmaceuticals, Inc., priority 2004, published 2010).

Assay: Stability profile at 25° C. in buffered aqueous solutions
Type: physicochemical
Conditions: for Degradation Rate Constant (k): 25° C.
Source text: While not intending to be bound in any way by theory, the base-catalyzed degradation is unexpected because the commercial proton pump inhibitors are stabilized in aqueous solutions by adjusting the solution to high pH. […] This should allow bolus injection of the compounds disclosed herein as opposed to the slow infusion of the drug currently in practice because the present compositions will not have the irritation associated with the high pH traditionally used with proton pump inhibitors. This should also allow greater flexibility in co-administering these compounds with drugs which are unstable or otherwise incompatible with high pH.

## COc1ccc2c(c1)nc([S+]([O-])Cc1ncc(C)c(OC)c1C)n2S(=O)(=O)c1ccc(OCC(=O)O)cc1 (centres unmarked) [Compound 1]
In a neutral solution
  shelf-life: over forty hours
pH 1, 0.1 M HCl
  Degradation Rate Constant (k): 0.194 h⁻¹
pH 3, Citric Acid (0.1 M)/Na2HPO4 (0.2 M)
  Degradation Rate Constant (k): 0.009 h⁻¹
pH 5, Citric Acid (0.1 M)/Na2HPO4 (0.2 M)
  Degradation Rate Constant (k): 0.008 h⁻¹
pH 7, sodium phosphate (0.1-0.2 M)
  Degradation Rate Constant (k): 0.002 h⁻¹
pH 7.4, sodium phosphate (0.1-0.2 M)
  Degradation Rate Constant (k): 0.002 h⁻¹
pH 9, sodium phosphate (0.1-0.2 M)
  Degradation Rate Constant (k): 0.03 h⁻¹
pH 10, sodium phosphate (0.1-0.2 M)
  Degradation Rate Constant (k): 0.298 h⁻¹
